Patent US20240294541A1, “COMPOUNDS CONSTITUTING C20-MODIFIED SALINOMYCIN DERIVATIVES, A METHOD FOR OBTAINING THE SAME, A COMPOSITION CONTAINING THE SAME AND A USE OF SAID COMPOUNDS” (FILECLO SPOLKA Z OGRANICZONA ODPOWIEDZIALNOSCIA, priority 2021, published 2024)

What was measured:
Format in all cases: cell-based
[1] = system: NCI-H23 (human lung cancer); experiment: In vitro cytotoxicity, SRB assay, NCI-H23; details: for IC50: Homo sapiens, NCI-H23, 72 h with compound, SRB, n/a = non-active compound, read-out: NCI-H23 IC50; for NCI-H23 SI: selectivity coefficient vs normal BALB/3T3 cells
[2] = system: PFSK-1 (malignant primitive neuroectodermal tumour); experiment: In vitro cytotoxicity, SRB assay, PFSK-1; details: for IC50: Homo sapiens, PFSK-1, 72 h with compound, SRB, n/a = non-active compound, read-out: PFSK-1 IC50; for PFSK-1 SI: selectivity coefficient vs normal BALB/3T3 cells
[3] = system: A2780 (human ovarian cancer); experiment: In vitro cytotoxicity, SRB assay, A2780; details: for IC50: Homo sapiens, A2780, 72 h with compound, SRB, n/a = non-active compound, read-out: A2780 IC50; for A2780 SI: selectivity coefficient vs normal BALB/3T3 cells
[4] = system: A2780Cis (cisplatin-resistant human ovarian cancer); experiment: In vitro cytotoxicity, SRB assay, A2780Cis; details: for IC50: Homo sapiens, A2780cis, 72 h, read-out: A2780Cis IC50 (nM)
A375 (human melanoma) = experiment: In vitro cytotoxicity, SRB assay, A375; details: for IC50: Homo sapiens, A-375, 72 h with compound, SRB, n/a = non-active compound, read-out: A375 IC50; for A375 SI: selectivity coefficient vs normal BALB/3T3 cells
Hs294T (human melanoma) = experiment: cells; details: for IC50: Homo sapiens, Hs 294T, 72 h with compound, SRB, n/a = non-active compound, read-out: Hs294T IC50; for Hs294T SI: selectivity coefficient vs normal BALB/3T3 cells
[5] = system: PLC/PRF/5 (human liver cancer); experiment: cells; details: for IC50: Homo sapiens, PLC-PRF-5, 72 h with compound, SRB, n/a = non-active compound, read-out: PLC/PRF/5 IC50; for PLC/PRF/5 SI: selectivity coefficient vs normal BALB/3T3 cells
[6] = system: SNU-16 (human gastric cancer); experiment: cells; details: for IC50: Homo sapiens, SNU-16, 72 h with compound, MTT, n/a = non-active compound, read-out: SNU-16 IC50; for SNU-16 SI: selectivity coefficient vs normal BALB/3T3 cells
[7] = system: KG-1 (human acute myeloid leukaemia); experiment: In vitro cytotoxicity, MTT assay, KG-1; details: for IC50: Homo sapiens, 72 h with compound, MTT, n/a = non-active compound; for KG-1 SI: selectivity coefficient vs normal BALB/3T3 cells
[8] = system: MIA PaCa-2 (human pancreatic cancer); experiment: cells; details: for IC50: Homo sapiens, MIA PaCa-2, 72 h with compound, SRB, n/a = non-active compound, read-out: MIA PaCa-2 IC50; for MIA PaCa-2 SI: selectivity coefficient vs normal BALB/3T3 cells
[9] = system: BALB/3T3 (normal mouse fibroblasts); experiment: In vitro cytotoxicity, SRB assay, normal BALB/3T3 fibroblasts; details: Mus musculus, BALB/3T3; normal cells; 72 h with compound, SRB; n/a = non-active compound; read-out: BALB/3T3 IC50

Row | Structure (SMILES) | IC50 [1] [µM] | NCI-H23 SI [1] | IC50 [2] [µM] | PFSK-1 SI [2] | IC50 [3] [µM] | A2780 SI [3] | A2780Cis RI [4] | A2780Cis SI [4] | IC50 [4] [nM] | IC50 (A375 (human melanoma)) [µM] | A375 SI (A375 (human melanoma)) | IC50 [5] [µM] | PLC/PRF/5 SI [5] | IC50 [6] [µM] | SNU-16 SI [6] | IC50 [7] [µM] | KG-1 SI [7] | IC50 [8] [µM] | MIA PaCa-2 SI [8] | IC50 [9] [µM] | also measured
1 | CC[C@@H](C(=O)[C@@H](C)[C@@H](O)[C@H](C)[C@@H]1O[C@@H]([C@@H](CC)C(=O)O)CC[C@@H]1C)[C@H]1O[C@]2(C=C[C@@H](NC(=O)NCc3ccccc3)[C@]3(CC[C@@](C)([C@H]4CC[C@](O)(CC)[C@H](C)O4)O3)O2)[C@H](C)C[C@@H]1C [FLC-00337-1] | 0.445 | 0.3 | 0.0194 | 6.3 | 0.0031 | 39.2 | 0.6 | 61.5 | 1.98 | 0.296 | 0.4 | 0.0414 | 2.9 | 0.0214 | 5.7 | 0.122 | 1.0 | 0.056 | 2.2 | 0.122 | IC50 (Hs294T (human melanoma)): 0.549 µM; Hs294T SI (Hs294T (human melanoma)): 0.2
2 | CC[C@@H](C(=O)[C@@H](C)[C@@H](O)[C@H](C)[C@@H]1O[C@@H]([C@@H](CC)C(=O)O)CC[C@@H]1C)[C@H]1O[C@]2(C=C[C@@H](NC(=O)NCCCl)[C@]3(CC[C@@](C)([C@H]4CC[C@](O)(CC)[C@H](C)O4)O3)O2)[C@H](C)C[C@@H]1C [FLC-00338-1 Na] | 0.62 | 0.3 | 0.0531 | 3.1 | 0.0054 | 30.4 | 1.9 | 16.2 | 10.1 | 0.354 | 0.5 | 0.0616 | 2.7 | 0.0392 | 4.2 | 0.222 | 0.7 | 0.0586 | 2.8 | 0.164 | IC50 (Hs294T (human melanoma)): 1.87 µM; Hs294T SI (Hs294T (human melanoma)): 0.1
3 | CCNC(=S)N[C@@H]1C=C[C@]2(O[C@H]([C@@H](CC)C(=O)[C@@H](C)[C@@H](O)[C@H](C)[C@@H]3O[C@@H]([C@@H](CC)C(=O)O)CC[C@@H]3C)[C@@H](C)C[C@H]2C)O[C@@]12CC[C@@](C)([C@H]1CC[C@](O)(CC)[C@H](C)O1)O2 [FLC-00339-1 Na] | 0.00438 | 12.4 | 0.0161 | 3.4 | 0.00227 | 24.0 | 0.9 | 26.7 | 2.04 | 0.0269 | 2.0 | 0.0108 | 5.0 | 0.0175 | 3.1 | 0.0111 | 4.9 | 0.0171 | 3.2 | 0.0545 | –
4 | CC[C@@H](C(=O)[C@@H](C)[C@@H](O)[C@H](C)[C@@H]1O[C@@H]([C@@H](CC)C(=O)O)CC[C@@H]1C)[C@H]1O[C@]2(C=C[C@@H](NC(=S)Nc3ccc(F)cc3)[C@]3(CC[C@@](C)([C@H]4CC[C@](O)(CC)[C@H](C)O4)O3)O2)[C@H](C)C[C@@H]1C [FLC-00340-1 Na] | 0.00864 | 6.7 | 0.00937 | 6.2 | 0.00241 | 24.0 | 0.8 | 31.4 | 1.84 | 0.0312 | 1.8 | 0.0191 | 3.0 | 0.0167 | 3.5 | 0.0244 | 2.4 | 0.0339 | 1.7 | 0.0577 | –
5 | CC[C@@H](C(=O)[C@@H](C)[C@@H](O)[C@H](C)[C@@H]1O[C@@H]([C@@H](CC)C(=O)O)CC[C@@H]1C)[C@H]1O[C@]2(C=C[C@@H](NC(=O)Nc3cc(C(F)(F)F)cc(C(F)(F)F)c3)[C@]3(CC[C@@](C)([C@H]4CC[C@](O)(CC)[C@H](C)O4)O3)O2)[C@H](C)C[C@@H]1C [FLC-00344-1 Na] | 0.285 | 3.7 | 0.112 | 9.5 | 0.021 | 50.5 | 1.2 | 43.8 | 24.3 | 2.31 | 0.5 | 1.29 | 0.8 | 0.106 | 10.0 | 0.286 | 3.7 | 0.383 | 2.8 | 1.06 | IC50 (Hs294T (human melanoma)): 2.57 µM; Hs294T SI (Hs294T (human melanoma)): 0.4
6 | CC[C@@H](C(=O)[C@@H](C)[C@@H](O)[C@H](C)[C@@H]1O[C@@H]([C@@H](CC)C(=O)O)CC[C@@H]1C)[C@H]1O[C@]2(C=C[C@@H](NC(=S)Nc3cc(C(F)(F)F)cc(C(F)(F)F)c3)[C@]3(CC[C@@](C)([C@H]4CC[C@](O)(CC)[C@H](C)O4)O3)O2)[C@H](C)C[C@@H]1C [FLC-00348-1] | 0.972 | 2.9 | 0.379 | 7.4 | 0.057 | 49.6 | 0.8 | 60.6 | 46.6 | 2.59 | 1.1 | 1.15 | 2.5 | 0.537 | 5.3 | 0.188 | 15.0 | 2.32 | 1.2 | 2.83 | IC50 (Hs294T (human melanoma)): 3.32 µM; Hs294T SI (Hs294T (human melanoma)): 0.9
7 | CC[C@@H](C(=O)[C@@H](C)[C@@H](O)[C@H](C)[C@@H]1O[C@@H]([C@@H](CC)C(=O)O)CC[C@@H]1C)[C@H]1O[C@]2(C=C[C@@H](NC(=O)NC(=O)C(Cl)(Cl)Cl)[C@]3(CC[C@@](C)([C@H]4CC[C@](O)(CC)[C@H](C)O4)O3)O2)[C@H](C)C[C@@H]1C [FLC-00367-1] | 0.682 | 7.4 | 0.689 | 7.4 | 0.322 | 15.7 | 0.8 | 19.1 | 266 | 5.92 | 0.9 | 0.94 | 5.4 | 0.368 | 13.8 | 0.666 | 7.6 | 3.22 | 1.6 | 5.08 | –
